Several values for one entry are separate records, joined by “and”; a condition that tells them apart may be missing. Equal entries are not always repeated.
System: 922993-354-T-J3-PDC complex spheroids, viability
Experiment: Anticancer human tumor 922993-354-T-J3-PDC patient-derived endometrial carcinoma cell line growth inhibition [GQUAD]
Settings: for viability, T/C: stronger effect = lower value
Excerpt: DNA G-quadruplex Stabilizer Agents in Combinations in Complex Spheroids
A high-throughput screen of multi-cell type tumor spheroids was designed to identify active combinations of DNA G-quadruplex stabilizer agents and targeted small molecules. Complex spheroids include a stromal component modeled by human endothelial cells (HUVEC) and fibroblasts modeled by human mesenchymal stem cells (MSCs). The concentration ranges selected for each drug and investigational agent were based upon clinically achievable concentrations if the clinical Cmax of the agent was known.
Compounds. The drugs and investigational agents: pidnarulex (CX-5461; NSC782164), APTO-253 (NSC789042), BRACO-19 (NSC847499), peposertib (NSC802822), ceralasertib (NSC780249), elimusertib (NSC800525), camonsertib (NSC841442), AZD-1390 (NSC803789), olaparib (NSC753686), talazoparib (NSC767125), ART-558 (NSC835418), sotorasib (NSC818433), MRTX-1133 (NSC836407), SN-38 (NSC673596), topotecan (NSC609699), etoposide (NSC141540), doxorubicin (NSC123127), gemcitabine (NSC613327), 5-fluorouracil (NSC19893), paclitaxel (NSC125973), vemurafenib (NSC761431), panobinostat (NSC761190), R-306465 (JNJ-16241199; NSC773264), adavosertib (NSC754352), TP-3654 (NSC805149), carboplatin (NSC241240), KSQ-4279 (NSC840948), and staurosporine (NSC755774) were obtained from the National Cancer Institute (NCI) Developmental Therapeutics Program Chemical Repository (34). The FDA-approved anticancer drug set is available from the NCI Developmental Therapeutics Program. […] The stock solutions were prepared in dimethyl sulfoxide (DMSO, Sigma-Aldrich, St. Louis, MO, cat. D2650) at 800-fold the tested concentration and stored at -70 degrees C prior to their use. All drugs and investigational agents were tested over a range starting from a high concentration at or near the clinical Cmax and decreasing in half-log increments. If the clinical Cmax for an agent had not been determined, the highest concentration tested was 10 microM.
2.3 Cell Culture. All cells were maintained in an incubator at 37 degrees C and 5% CO2 with 95% humidity. The PDC lines were cultured according to standard operating procedures established by the NCI PDMR. All PDCs were thawed and cultured in Matrigel-coated flasks prepared with a working solution of 1X Ham's F-12 nutrient mix, without supplementation (Invitrogen, cat. 11765054), 100 U/mL penicillin-streptomycin (Invitrogen, cat. 15140122), and 2.5% Matrigel (Corning Inc., cat. 354248) for the first three passages. The 857933-349-R-J2-PDC line was cultured in 6C/Colon 1B media, which includes advanced DMEM/F-12 (Thermo Fisher Scientific, cat. 12634028), 10 mM HEPES (Thermo Fisher Scientific, cat. 15630080), 1X GlutaMAX supplement (Thermo Fisher Scientific, cat. 35050061), 0.1 mg/mL primocin (InvivoGen, cat. ant-pm-2), 10% defined fetal bovine serum, heat inactivated (HyClone Laboratories Inc., cat. SH30070.03HI), 50% L-WRN conditioned media (ATCC, cat. CRL-3276), 1.25 mM N-Acetyl-L-cysteine (Sigma-Aldrich, cat. A9165), 10 mM nicotinamide (Sigma-Aldrich, cat. N0636), 1X B-27 supplement (Thermo Fisher Scientific, cat. 17504044), 1X N-2 supplement (Thermo Fisher Scientific, cat. 17502048), 10 microM Y-27632 dihydrochloride (Tocris Bioscience, cat. 1254), and 50 ng/mL human EGF recombinant protein (Thermo Fisher Scientific, cat. PHG0311). The 485176-168-R4-J1-PDC line was cultured in Panc media, which includes all 6C/Colon 1B media components plus 100 ng/mL human FGF-10 (Thermo Fisher Scientific, cat. 100-26), 500 nM SB-431542 (Selleckchem, cat. S1067), and gastrin (Tocris, cat. 3006).
[…]
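Also: spheroids exposed to compounds for seven days.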
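For viability, T/C in this document: 100% = DMSO vehicle control viability.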

Question: What does the source list for `Cc1cccc(N(C)C(=O)C2C(O)CCN2c2nc(C)cc(C(F)(F)F)c2C#N)c1` (centres undefined)?
Answer: viability, T/C (compound 0.0316 µM): 90.6% and 93.6% and 97.1%; viability, T/C (compound 0.1 µM): 106% and 90.6% and 105%; viability, T/C (compound 0.316 µM): 83.6% and 87.3% and 122%; viability, T/C (compound 1 µM): 118% and 86.8% and 91.9%; viability, T/C (compound 3.16 µM): 122% and 71.7% and 102%; viability, T/C (compound 10 µM): 110% and 94.2% and 78.3%; IC50 (curve of compound): > 10000 nM

Question: Which IC50 (curve of first compound, second compound 0.0316 µM) does the source give for `Cn1ncnc1[C@H]1c2n[nH]c(=O)c3cc(F)cc(c23)N[C@@H]1c1ccc(F)cc1` + Cc1[nH]c2ccc(F)cc2c1-c1nc2c3cccnc3c3ncccc3c2[nH]1 here?
Answer: > 316 nM

Question: What about the IC50 (curve of first compound, second compound 0.1 µM) of the same compound?
Answer: > 316 nM

Question: And the IC50 (curve of first compound, second compound 0.316 µM)?
Answer: > 316 nM

Question: What about the IC50 (curve of first compound, second compound 1 µM) of the same compound?
Answer: > 316 nM

Question: And the IC50 (curve of first compound, second compound 3.16 µM)?
Answer: > 316 nM

Question: And the IC50 (curve of first compound, second compound 10 µM)?
Answer: > 316 nM

Question: What about the viability, T/C (second compound 0.0316 µM, first compound 0.000999 µM) of the same compound?
Answer: 102%

Question: What about the viability, T/C (second compound 0.0316 µM, first compound 0.00316 µM) of the same compound?
Answer: 100%

Question: What about the viability, T/C (second compound 0.0316 µM, first compound 0.00999 µM) of the same compound?
Answer: 83.8%

Question: What about the viability, T/C (second compound 0.0316 µM, first compound 0.0316 µM) of the same compound?
Answer: 88%

Question: What about the viability, T/C (second compound 0.0316 µM, first compound 0.0999 µM) of the same compound?
Answer: 85%

Question: And the viability, T/C (second compound 0.0316 µM, first compound 0.316 µM)?
Answer: 61.5%

Question: And the viability, T/C (second compound 0.1 µM, first compound 0.000999 µM)?
Answer: 92.4%

Question: And the viability, T/C (second compound 0.1 µM, first compound 0.00316 µM)?
Answer: 85.4%

Question: What about the viability, T/C (second compound 0.1 µM, first compound 0.00999 µM) of the same compound?
Answer: 80.8%

Question: And the viability, T/C (second compound 0.1 µM, first compound 0.0316 µM)?
Answer: 97.5%

Question: And the viability, T/C (second compound 0.1 µM, first compound 0.0999 µM)?
Answer: 80.1%

Question: And the viability, T/C (second compound 0.1 µM, first compound 0.316 µM)?
Answer: 54.1%

Question: And the viability, T/C (second compound 0.316 µM, first compound 0.000999 µM)?
Answer: 100%

Question: And the viability, T/C (second compound 0.316 µM, first compound 0.00316 µM)?
Answer: 98.6%

Question: And the viability, T/C (second compound 0.316 µM, first compound 0.00999 µM)?
Answer: 108%

Question: And the viability, T/C (second compound 0.316 µM, first compound 0.0316 µM)?
Answer: 111%

Question: What about the viability, T/C (second compound 0.316 µM, first compound 0.0999 µM) of the same compound?
Answer: 122%

Question: And the viability, T/C (second compound 0.316 µM, first compound 0.316 µM)?
Answer: 64.9%

Question: What about the viability, T/C (second compound 1 µM, first compound 0.000999 µM) of the same compound?
Answer: 110%

Question: What about the viability, T/C (second compound 1 µM, first compound 0.00316 µM) of the same compound?
Answer: 82.8%

Question: What about the viability, T/C (second compound 1 µM, first compound 0.00999 µM) of the same compound?
Answer: 100%

Question: And the viability, T/C (second compound 1 µM, first compound 0.0316 µM)?
Answer: 97.1%

Question: And the viability, T/C (second compound 1 µM, first compound 0.0999 µM)?
Answer: 93.3%

Question: And the viability, T/C (second compound 1 µM, first compound 0.316 µM)?
Answer: 69.6%

Question: And the viability, T/C (second compound 3.16 µM, first compound 0.000999 µM)?
Answer: 118%

Question: What about the viability, T/C (second compound 3.16 µM, first compound 0.00316 µM) of the same compound?
Answer: 92.6%

Question: And the viability, T/C (second compound 3.16 µM, first compound 0.00999 µM)?
Answer: 106%

Question: What about the viability, T/C (second compound 3.16 µM, first compound 0.0316 µM) of the same compound?
Answer: 84.2%

Question: What about the viability, T/C (second compound 3.16 µM, first compound 0.0999 µM) of the same compound?
Answer: 94.9%

Question: And the viability, T/C (second compound 3.16 µM, first compound 0.316 µM)?
Answer: 70.6%

Question: What about the viability, T/C (second compound 10 µM, first compound 0.000999 µM) of the same compound?
Answer: 111%

Question: And the viability, T/C (second compound 10 µM, first compound 0.00316 µM)?
Answer: 93%

Question: What about the viability, T/C (second compound 10 µM, first compound 0.00999 µM) of the same compound?
Answer: 119%

Question: And the viability, T/C (second compound 10 µM, first compound 0.0316 µM)?
Answer: 112%

Question: What about the viability, T/C (second compound 10 µM, first compound 0.0999 µM) of the same compound?
Answer: 75%

Question: And the viability, T/C (second compound 10 µM, first compound 0.316 µM)?
Answer: 81.9%

From PubChem BioAssay AID2060489 (Molecular Pharmacology Branch, DTP, NCI, 2025)
